{"source": "paper PMC7180572", "about": "“5-Alkylamino-N-phenylpyrazine-2-carboxamides: Design, Preparation, and Antimycobacterial Evaluation” (Molecules, 2020)", "key": {"[1]": {"tested_on": "HepG2 cells", "assay": "HepG2 cytotoxicity, CellTiter 96 (MTS) assay", "type": "cell-based, human", "conditions": "Homo sapiens, read-out: HepG2 IC50"}, "[2]": {"tested_on": "Mycobacterium smegmatis DSM 43465 (ATCC 607)", "assay": "Microdilution broth, modified Microplate Alamar Blue Assay, whole cell growth inhibition", "type": "cell-based", "conditions": "Mycolicibacterium smegmatis, read-out: MIC Mycobacterium smegmatis"}, "[3]": {"type": "physicochemical", "experimental": "As a complementary test, final compounds were tested for in vitro activity against selected fungal and bacterial pathogens of clinical importance. The microdilution broth method was performed according to The European Committee on Antimicrobial Susceptibility Testing (EUCAST) instructions with slight modifications. The minimum inhibitory concentration was expressed in µM. Not all compounds were evaluated due to the fact of a problem with solubility which occurred for 18 samples. […] See Supplementary Materials for the list of tested strains, methodology, and full results."}, "[4]": {"tested_on": "Mycobacterium aurum DSM 43999 (ATCC 23366)", "assay": "Microdilution broth, modified Microplate Alamar Blue Assay, whole cell growth inhibition", "type": "cell-based", "conditions": "Mycolicibacterium aurum, read-out: MIC Mycobacterium aurum"}, "[5]": {"tested_on": "Mycobacterium tuberculosis H37Ra ITM-M006710 (ATCC 9431)", "assay": "Microdilution broth, modified Microplate Alamar Blue Assay, whole cell growth inhibition", "type": "cell-based", "conditions": "Mycobacterium tuberculosis; in vitro, Middlebrook 7H9 broth, resazurin; read-out: MIC Mtb H37Ra"}, "[6]": {"tested_on": "Aspergillus flavus CCM 8363", "assay": "Antifungal microdilution broth method (EUCAST)", "type": "cell-based", "conditions": "read-out: MIC AFla"}, "[7]": {"tested_on": "Staphylococcus epidermidis ATCC 12228, CCM 4418", "assay": "Antibacterial microdilution broth method (EUCAST)", "type": "cell-based", "conditions": "read-out: MIC SE"}, "[8]": {"tested_on": "Escherichia coli ATCC 25922, CCM 3954", "assay": "Antibacterial microdilution broth method (EUCAST)", "type": "cell-based", "conditions": "read-out: MIC EC"}, "[9]": {"tested_on": "Candida krusei ATCC 6258, CCM 8271", "assay": "Antifungal microdilution broth method (EUCAST)", "type": "cell-based", "conditions": "Pichia kudriavzevii, read-out: MIC CK"}, "[10]": {"tested_on": "Klebsiella pneumoniae ATCC 10031, CCM 4415", "assay": "Antibacterial microdilution broth method (EUCAST)"}, "[11]": {"tested_on": "Candida parapsilosis ATCC 22019, CCM 8260", "assay": "Antifungal microdilution broth method (EUCAST)", "type": "cell-based", "conditions": "Lodderomyces parapsilosis, read-out: MIC CP"}, "[12]": {"tested_on": "Staphylococcus aureus methicillin resistant ATCC 43300, CCM 4750", "assay": "microbe, parasite or virus in culture", "type": "cell-based", "conditions": "ATCC 43300 / CCM 4750 / MRSA, read-out: MIC MRSA"}, "[13]": {"tested_on": "Aspergillus fumigatus ATCC 204305", "assay": "Antifungal microdilution broth method (EUCAST)", "type": "cell-based", "conditions": "read-out: MIC AF"}, "[14]": {"tested_on": "Candida tropicalis ATCC 750, CCM 8264", "assay": "Antifungal microdilution broth method (EUCAST)", "type": "cell-based", "conditions": "read-out: MIC CT"}, "[15]": {"tested_on": "Absidia corymbifera CCM 8077 (Lichtheimia corymbifera)", "assay": "Antifungal microdilution broth method (EUCAST)", "type": "cell-based", "conditions": "read-out: MIC AC"}, "[16]": {"tested_on": "Enterococcus faecalis ATCC 29212, CCM 4224", "assay": "Antibacterial microdilution broth method (EUCAST)", "type": "cell-based", "conditions": "read-out: MIC EF"}, "[17]": {"tested_on": "Trichophyton interdigitale ATCC 9533, CCM 8377", "assay": "Antifungal microdilution broth method (EUCAST)", "type": "cell-based", "conditions": "read-out: MIC TI"}, "[18]": {"tested_on": "Candida albicans ATCC 24433, CCM 8320", "assay": "Antifungal microdilution broth method (EUCAST)", "type": "cell-based", "conditions": "read-out: MIC CA"}, "[19]": {"tested_on": "Pseudomonas aeruginosa ATCC 27853, CCM 3955", "assay": "Antibacterial microdilution broth method (EUCAST)", "type": "cell-based", "conditions": "read-out: MIC PA"}, "[20]": {"tested_on": "Staphylococcus aureus spp.aureus ATCC 29213, CCM 4223", "assay": "Antibacterial microdilution broth method (EUCAST)", "type": "cell-based", "conditions": "read-out: MIC SA"}, "[21]": {"tested_on": "Acinetobacter baumanii ATCC 19606, DSM 30007", "assay": "Antibacterial microdilution broth method (EUCAST)", "type": "cell-based", "conditions": "Acinetobacter baumannii"}, "[22]": {"conditions": "HepG2, 24 h incubation, > means higher concentration not reproducible due to precipitation"}, "[23]": {"conditions": "in vitro, Middlebrook 7H9 broth, resazurin"}}, "note": "Where two headings read alike, the source gives them in different places.", "data": [{"smiles": "CCCCCNc1cnc(C(=O)Nc2cccc(O)c2)cn1", "note": "[Compound 2c, N-(3-hydroxyphenyl)-5-(pentylamino)pyrazine-2-carboxamide]", "values": [{"measurement": "IC50", "setting": "[1]; [22]", "value": "> 10", "unit": "µM"}, {"measurement": "MIC", "setting": "[2]; [23]", "value": "≥ 500", "unit": "µg/mL"}, {"measurement": "melting point", "value": "224.8 to 226.1", "unit": "°C"}, {"measurement": "Solubility problem in antibacterial/antifungal testing", "setting": "[3]", "value": "precipitated in both growth media"}, {"measurement": "MIC", "setting": "[4]; [23]", "value": "≥ 500", "unit": "µg/mL"}, {"measurement": "MIC", "setting": "[5]", "value": "≥ 500", "unit": "µg/mL"}]}, {"smiles": "CCCCCCNc1cnc(C(=O)Nc2cccc(O)c2)cn1", "note": "[Compound 2d, 5-(Hexylamino)pyrazine-N-(3-hydroxyphenyl)-2-carboxamide]", "values": [{"measurement": "IC50", "setting": "[1]; [22]", "value": "> 10", "unit": "µM"}, {"measurement": "MIC", "setting": "[2]; [23]", "value": "≥ 500", "unit": "µg/mL"}, {"measurement": "melting point", "value": "225 to 226", "unit": "°C"}, {"measurement": "Solubility problem in antibacterial/antifungal testing", "setting": "[3]", "value": "precipitated in both growth media"}, {"measurement": "MIC", "setting": "[4]; [23]", "value": "≥ 500", "unit": "µg/mL"}, {"measurement": "MIC", "setting": "[5]", "value": "≥ 500", "unit": "µg/mL"}]}, {"smiles": "CCCCCCCNc1cnc(C(=O)Nc2cccc(O)c2)cn1", "note": "[Compound 2e, 5-(Heptylamino)pyrazine-N-(3-hydroxyphenyl)-2-carboxamide]", "values": [{"measurement": "IC50", "setting": "[1]; [22]", "value": "> 10", "unit": "µM"}, {"measurement": "MIC", "setting": "[2]; [23]", "value": 250, "unit": "µg/mL"}, {"measurement": "melting point", "value": "222 to 223", "unit": "°C"}, {"measurement": "Solubility problem in antibacterial/antifungal testing", "setting": "[3]", "value": "precipitated in both growth media"}, {"measurement": "MIC", "setting": "[4]; [23]", "value": "≥ 500", "unit": "µg/mL"}, {"measurement": "MIC", "setting": "[5]", "value": "≥ 500", "unit": "µg/mL"}]}, {"smiles": "CCCCCNc1cnc(C(=O)Nc2ccc(C)cc2)cn1", "note": "[Compound 4c, 5-(Pentylamino)-N-(p-tolyl)pyrazine-2-carboxamide]", "values": [{"measurement": "MIC", "setting": "[6]; CCM8363, 24 h", "value": "> 125", "unit": "µM"}, {"measurement": "MIC", "setting": "[6]; CCM8363, 48 h", "value": "> 125", "unit": "µM"}, {"measurement": "MIC", "setting": "[7]; 24 h", "value": "> 500", "unit": "µM"}, {"measurement": "MIC", "setting": "[7]; 48 h", "value": "> 500", "unit": "µM"}, {"measurement": "MIC", "setting": "[8]; 24 h", "value": "> 500", "unit": "µM"}, {"measurement": "MIC", "setting": "[8]; 48 h", "value": "> 500", "unit": "µM"}, {"measurement": "MIC", "setting": "[9]; 24 h", "value": "> 125", "unit": "µM"}, {"measurement": "MIC", "setting": "[9]; 48 h", "value": "> 125", "unit": "µM"}, {"measurement": "MIC KP", "setting": "[10]; 24h", "value": "> 500", "unit": "µM"}, {"measurement": "MIC KP", "setting": "[10]; 48h", "value": "> 500", "unit": "µM"}, {"measurement": "IC50", "setting": "[1]; HepG2, 24 h", "value": "> 25", "unit": "µM"}, {"measurement": "MIC", "setting": "[2]", "value": "≥ 500", "unit": "µg/mL"}, {"measurement": "MIC", "setting": "[11]; 24 h", "value": "> 125", "unit": "µM"}, {"measurement": "MIC", "setting": "[11]; 48 h", "value": "> 125", "unit": "µM"}, {"measurement": "melting point", "value": "155.9 to 156.6", "unit": "°C"}, {"measurement": "MIC", "setting": "[12]; 24 h", "value": "> 500", "unit": "µM"}, {"measurement": "MIC", "setting": "[12]; 48 h", "value": "> 500", "unit": "µM"}, {"measurement": "MIC", "setting": "[13]; ATCC204305, 24 h", "value": "> 125", "unit": "µM"}, {"measurement": "MIC", "setting": "[13]; ATCC204305, 48 h", "value": "> 125", "unit": "µM"}, {"measurement": "MIC", "setting": "[14]; 24 h", "value": "> 125", "unit": "µM"}, {"measurement": "MIC", "setting": "[14]; 48 h", "value": "> 125", "unit": "µM"}, {"measurement": "MIC", "setting": "[4]", "value": "≥ 500", "unit": "µg/mL"}, {"measurement": "MIC", "setting": "[15]; CCM8077, 24 h", "value": "> 125", "unit": "µM"}, {"measurement": "MIC", "setting": "[15]; CCM8077, 48 h", "value": "> 125", "unit": "µM"}, {"measurement": "MIC", "setting": "[16]; 24 h", "value": "> 500", "unit": "µM"}, {"measurement": "MIC", "setting": "[16]; 48 h", "value": "> 500", "unit": "µM"}, {"measurement": "MIC", "setting": "[17]; 72 h", "value": "> 125", "unit": "µM"}, {"measurement": "MIC", "setting": "[17]; 120 h", "value": "> 125", "unit": "µM"}, {"measurement": "MIC", "setting": "[5]", "value": "≥ 500", "unit": "µg/mL"}, {"measurement": "MIC", "setting": "[18]; 24 h", "value": "> 125", "unit": "µM"}, {"measurement": "MIC", "setting": "[18]; 48 h", "value": "> 125", "unit": "µM"}, {"measurement": "MIC", "setting": "[19]; 72 h", "value": "> 500", "unit": "µM"}, {"measurement": "MIC", "setting": "[19]; 120 h", "value": "> 500", "unit": "µM"}, {"measurement": "MIC", "setting": "[20]; 24 h", "value": "> 500", "unit": "µM"}, {"measurement": "MIC", "setting": "[20]; 48 h", "value": "> 500", "unit": "µM"}, {"measurement": "MIC", "setting": "[21]; 24h", "value": "> 500", "unit": "µM"}, {"measurement": "MIC", "setting": "[21]; 48h", "value": "> 500", "unit": "µM"}]}]}
